From patent US20100267561A1, “HERBICIDAL PYRIDAZINONE DERIVATIVES” (priority 2007, published 2010)

Key:
Assay in all cases: Test B pre-/postemergence plant response
Type in all cases: in vivo
[1] = test system: surinam grass (Brachiaria decumbens)
From the text: (§1) Seeds of plant species selected from blackgrass (Alopecurus myosuroides), downy bromegrass (Bromus tectorum), green foxtail (Setaria viridis), Italian ryegrass (Lolium multiflorum), wheat (Triticum aestivum), wild oat (Avena fatua), catchweed bedstraw (Galium aparine), bermudagrass (Cynodon dactylon), surinam grass (Brachiaria decumbens), cocklebur (Xanthium strumarium), corn (Zea mays), large crabgrass (Digitaria sanguinalis), woolly cupgrass (Eriochloa villosa), giant foxtail (Setaria faberii), goosegrass (Eleusine indica), johnsongrass (Sorghum halepense), kochia (Kochia scoparia), lambsquarters (Chenopodium album), morningglory (Ipomoea coccinea), eastern black (E.B.) nightshade (Solanum ptycanthum), yellow nutsedge (Cyperus esculentus), pigweed (Amaranthus retroflexus), common ragweed (Ambrosia elation), Russian thistle (Salsola iberica), soybean (Glycine max), common (oilseed) sunflower (Helianthus annuus), and velvetleaf (Abutilon theophrasti) were planted and treated preemergence with test chemicals formulated in a non-phytotoxic solvent mixture which included a surfactant.
(§2) At the same time, plants selected from these crop and weed species and also winter barley (Hordeum vulgare), canarygrass (Phalaris minor), chickweed (Stellaria media) and windgrass (Apera spica-venti) were treated with postemergence applications of some of the test chemicals formulated in the same manner. Plants ranged in height from 2 to 18 cm (1- to 4-leaf stage) for postemergence treatments.
(§3) Plant species in the flooded paddy test consisted of rice (Oryza sativa), umbrella sedge (Cyperus difformis), ducksalad (Heteranthera limosa) and barnyardgrass (Echinochloa crus-galli) grown to the 2-leaf stage for testing. At time of treatment, test pots were flooded to 3 cm above the soil surface, treated by application of test compounds directly to the paddy water, and then maintained at that water depth for the duration of the test. Treated plants and controls were maintained in a greenhouse for 13 to 15 days, after which time all species were compared to controls and visually evaluated. Plant response ratings, summarized in Table B, are based on a scale of 0 to 100 where 0 is no effect and 100 is complete control. A dash (-) response means no test result.

[2] = test system: eastern black (E.B.) nightshade (Solanum ptycanthum); conditions: Preemergence
From the text: as §1, §2, §3

[3] = test system: blackgrass (Alopecurus myosuroides)
From the text: as §1, §2, §3

wild oat (Avena fatua) = test system: wild oat (Avena fatua)
From the text: as §1, §2, §3

[4] = test system: Italian ryegrass (Lolium multiflorum)
From the text: as §1, §2, §3

[5] = test system: yellow nutsedge (Cyperus esculentus)
From the text: as §1, §2, §3

corn (Zea mays) = test system: corn (Zea mays)
From the text: as §1, §2, §3

[6] = test system: morningglory (Ipomoea coccinea)
From the text: as §1, §2, §3

[7] = test system: giant foxtail (Setaria faberii)
From the text: as §1, §2, §3

[8] = test system: common ragweed (Ambrosia elation)
From the text: as §1, §2, §3

[9] = test system: bermudagrass (Cynodon dactylon)
From the text: as §1, §2, §3

kochia (Kochia scoparia) = test system: kochia (Kochia scoparia)
From the text: as §1, §2, §3

[10] = test system: lambsquarters (Chenopodium album)
From the text: as §1, §2, §3

[11] = test system: johnsongrass (Sorghum halepense)
From the text: as §1, §2, §3

[12] = Postemergence, 16 g ai/ha, scale 0 to 100
[13] = Postemergence, 31 g ai/ha, scale 0 to 100, 0 no effect, 100 complete control
[14] = Postemergence, 62 g ai/ha, scale 0 to 100
[15] = Postemergence, 125 g ai/ha, scale 0 to 100
[16] = Preemergence, 16 g ai/ha, scale 0 to 100 (0 no effect, 100 complete control)
[17] = Preemergence, 31 g ai/ha, 0 to 100 scale, 0 no effect, 100 complete control
[18] = Preemergence, 62 g ai/ha, scale 0 to 100
[19] = Preemergence, 125 g ai/ha, scale 0 to 100

## CCc1cc(-c2ccc(C(F)(F)F)cc2)nn1-c1c(OC(=O)OC(C)C)cnn(C)c1=O [Compound 12]
[1]; [12]
  Plant response rating, Surinam Grass: 100
[1]; [13]
  Plant response rating, Surinam Grass: 100
[1]; [14]
  Plant response rating, Surinam Grass: 100
[1]; [15]
  Plant response rating, Surinam Grass: 100
[1]; [16]
  Plant response rating, Surinam Grass: 100
[1]; [17]
  Plant response rating, Surinam Grass: 100
[1]; [18]
  Plant response rating, Surinam Grass: 100
[1]; [19]
  Plant response rating, Surinam Grass: 100
[2]; 16 g ai/ha, scale 0 to 100 (0 no effect, 100 complete control)
  Plant response rating, Nightshade, E. B.: 0
[2]; 31 g ai/ha, 0 to 100 scale, 0 no effect, 100 complete control
  Plant response rating, Nightshade, E. B.: 0
[2]; 62 g ai/ha, scale 0 to 100
  Plant response rating, Nightshade, E. B.: 50
[2]; 125 g ai/ha, scale 0 to 100
  Plant response rating, Nightshade, E. B.: 85
[3]; [12]
  Plant response rating, Blackgrass: 100
[3]; [13]
  Plant response rating, Blackgrass: 100
[3]; [14]
  Plant response rating, Blackgrass: 100
[3]; [15]
  Plant response rating, Blackgrass: 100
[3]; [16]
  Plant response rating, Blackgrass: 98
[3]; [17]
  Plant response rating, Blackgrass: 100
[3]; [18]
  Plant response rating, Blackgrass: 100
[3]; [19]
  Plant response rating, Blackgrass: 100
Wild oat (Avena fatua); [12]
  Plant response rating, Oat, Wild: 100
Wild oat (Avena fatua); [13]
  Plant response rating, Oat, Wild: 100
Wild oat (Avena fatua); [14]
  Plant response rating, Oat, Wild: 100
Wild oat (Avena fatua); [15]
  Plant response rating, Oat, Wild: 100
Wild oat (Avena fatua); [16]
  Plant response rating, Oat, Wild: 60
Wild oat (Avena fatua); [17]
  Plant response rating, Oat, Wild: 90
Wild oat (Avena fatua); [18]
  Plant response rating, Oat, Wild: 95
Wild oat (Avena fatua); [19]
  Plant response rating, Oat, Wild: 98
[4]; [12]
  Plant response rating, Ryegrass, Italian: 100
[4]; [13]
  Plant response rating, Ryegrass, Italian: 100
[4]; [14]
  Plant response rating, Ryegrass, Italian: 100
[4]; [15]
  Plant response rating, Ryegrass, Italian: 100
[4]; [16]
  Plant response rating, Ryegrass, Italian: 90
[4]; [17]
  Plant response rating, Ryegrass, Italian: 95
[4]; [18]
  Plant response rating, Ryegrass, Italian: 100
[4]; [19]
  Plant response rating, Ryegrass, Italian: 100
[5]; [12]
  Plant response rating, Nutsedge, Yellow: 0
[5]; [13]
  Plant response rating, Nutsedge, Yellow: 0
[5]; [14]
  Plant response rating, Nutsedge, Yellow: 0
[5]; [15]
  Plant response rating, Nutsedge, Yellow: 0
[5]; [16]
  Plant response rating, Nutsedge, Yellow: 0
[5]; [17]
  Plant response rating, Nutsedge, Yellow: 0
[5]; [18]
  Plant response rating, Nutsedge, Yellow: 0
[5]; [19]
  Plant response rating, Nutsedge, Yellow: 0
Corn (Zea mays); [12]
  Plant response rating, Corn: 100
Corn (Zea mays); [13]
  Plant response rating, Corn: 100
Corn (Zea mays); [14]
  Plant response rating, Corn: 100
Corn (Zea mays); [15]
  Plant response rating, Corn: 100
Corn (Zea mays); [16]
  Plant response rating, Corn: 70
Corn (Zea mays); [17]
  Plant response rating, Corn: 75
Corn (Zea mays); [18]
  Plant response rating, Corn: 95
Corn (Zea mays); [19]
  Plant response rating, Corn: 95
[6]; [12]
  Plant response rating, Morningglory: 0
[6]; [13]
  Plant response rating, Morningglory: 0
[6]; [14]
  Plant response rating, Morningglory: 0
[6]; [15]
  Plant response rating, Morningglory: 40
[6]; [16]
  Plant response rating, Morningglory: 0
[6]; [17]
  Plant response rating, Morningglory: 0
[6]; [18]
  Plant response rating, Morningglory: 0
[6]; [19]
  Plant response rating, Morningglory: 0
[7]; [12]
  Plant response rating, Foxtail, Giant: 100
[7]; [13]
  Plant response rating, Foxtail, Giant: 100
[7]; [14]
  Plant response rating, Foxtail, Giant: 100
[7]; [15]
  Plant response rating, Foxtail, Giant: 100
[7]; [16]
  Plant response rating, Foxtail, Giant: 100
[7]; [17]
  Plant response rating, Foxtail, Giant: 100
[7]; [18]
  Plant response rating, Foxtail, Giant: 100
[7]; [19]
  Plant response rating, Foxtail, Giant: 100
[8]; [12]
  Plant response rating, Ragweed: 0
[8]; [13]
  Plant response rating, Ragweed: 0
[8]; [14]
  Plant response rating, Ragweed: 0
[8]; [15]
  Plant response rating, Ragweed: 0
[8]; [16]
  Plant response rating, Ragweed: 0
[8]; [17]
  Plant response rating, Ragweed: 0
[8]; [18]
  Plant response rating, Ragweed: 0
[8]; [19]
  Plant response rating, Ragweed: 0
[9]; [12]
  Plant response rating, Bermudagrass: 100
[9]; [13]
  Plant response rating, Bermudagrass: 100
[9]; [14]
  Plant response rating, Bermudagrass: 100
[9]; [15]
  Plant response rating, Bermudagrass: 100
[9]; [16]
  Plant response rating, Bermudagrass: 100
[9]; [17]
  Plant response rating, Bermudagrass: 100
[9]; [18]
  Plant response rating, Bermudagrass: 100
[9]; [19]
  Plant response rating, Bermudagrass: 100
Kochia (Kochia scoparia); [12]
  Plant response rating, Kochia: 0
Kochia (Kochia scoparia); [13]
  Plant response rating, Kochia: 0
Kochia (Kochia scoparia); [14]
  Plant response rating, Kochia: 0
Kochia (Kochia scoparia); [15]
  Plant response rating, Kochia: 0
Kochia (Kochia scoparia); [16]
  Plant response rating, Kochia: 0
Kochia (Kochia scoparia); [17]
  Plant response rating, Kochia: 0
Kochia (Kochia scoparia); [18]
  Plant response rating, Kochia: 0
Kochia (Kochia scoparia); [19]
  Plant response rating, Kochia: 0
[10]; [12]
  Plant response rating, Lambsquarters: 0
[10]; [13]
  Plant response rating, Lambsquarters: 0
[10]; [14]
  Plant response rating, Lambsquarters: 0
[10]; [15]
  Plant response rating, Lambsquarters: 40
[10]; [16]
  Plant response rating, Lambsquarters: 0
[10]; [17]
  Plant response rating, Lambsquarters: 0
[10]; [19]
  Plant response rating, Lambsquarters: 0
[11]; [12]
  Plant response rating, Johnsongrass: 100
[11]; [13]
  Plant response rating, Johnsongrass: 100
[11]; [14]
  Plant response rating, Johnsongrass: 100
[11]; [15]
  Plant response rating, Johnsongrass: 100
[11]; [16]
  Plant response rating, Johnsongrass: 70
[11]; [17]
  Plant response rating, Johnsongrass: 95
[11]; [18]
  Plant response rating, Johnsongrass: 100
[11]; [19]
  Plant response rating, Johnsongrass: 100
